Source: patent US6605424B1, “Method of detecting inhibitors of agonist-specific desensitization” (Duke University, priority 1989, dated 2003)
Values belong to the molecule of their own block, whether it stands above or below them. No end group written: not given here.

Tests used:
[1] = molecular target: T1, βAR kinase (Bos taurus, UniProt P21146); experiment: Phosphorylation of purified reconstituted β2ARs by purified βAR kinase (Example II); type: biochemical, bovine
T1 construct: βAR kinase was purified from bovine cerebral cortex; from tissue; host or cells: bovine cerebral cortex
T1 sequence (P21146 1-689): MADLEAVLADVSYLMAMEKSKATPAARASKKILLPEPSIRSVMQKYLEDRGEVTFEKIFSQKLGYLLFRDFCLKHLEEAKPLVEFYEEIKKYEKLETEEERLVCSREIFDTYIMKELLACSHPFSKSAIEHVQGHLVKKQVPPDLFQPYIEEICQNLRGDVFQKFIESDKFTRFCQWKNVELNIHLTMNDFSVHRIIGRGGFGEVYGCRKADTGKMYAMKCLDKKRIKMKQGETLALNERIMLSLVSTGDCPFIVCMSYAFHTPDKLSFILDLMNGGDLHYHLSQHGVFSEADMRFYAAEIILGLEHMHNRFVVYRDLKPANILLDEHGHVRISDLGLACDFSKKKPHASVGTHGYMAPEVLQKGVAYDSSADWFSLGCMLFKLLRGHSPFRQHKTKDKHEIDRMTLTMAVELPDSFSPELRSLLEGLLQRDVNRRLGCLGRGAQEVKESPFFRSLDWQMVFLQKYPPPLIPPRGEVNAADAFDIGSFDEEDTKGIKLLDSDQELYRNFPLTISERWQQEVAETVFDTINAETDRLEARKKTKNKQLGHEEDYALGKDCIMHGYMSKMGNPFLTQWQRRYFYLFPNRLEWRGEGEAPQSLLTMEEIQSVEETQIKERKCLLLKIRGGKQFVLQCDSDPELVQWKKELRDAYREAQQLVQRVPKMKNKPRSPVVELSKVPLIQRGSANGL
Experimental: FIG. 7. […] (Inset) Relevant section of a representative autoradiogram. Data are means±SEM of three independent experiments. […] Desensitization was measured as the percent loss of stimulation by 10 μM (−)-isoproterenol of adenylyl cyclase activity in membranes. […] Data are means±SEM of four independent experiments.
Purified β2ARs were inserted into phosphatidylcholine vesicles by chromatography on Extracti-gel, followed by polyethylene glycol treatment and centrifugation at 280,000×g for 90 min (Cerione et al (1984) Biochemistry 23:4519-4525). Phosphorylation of the reconstituted receptors by purified βAR kinase was done in the presence of 50 μM (−)-isoproterenol as described (Benovic et al (1987) J. Biol. Chem. 262:9026-9032). Subsequently, the samples were subjected to sodium dodecyl sulfate polyacrylamide gel electrophoresis on 10% gels (Laemmli (1970) Nature 227:680-685). The phosphorylated β2ARs were visualized by autoradiography, and the corresponding bands were cut out and their content of ^32P quantified.

[2] = system: β2ARs in permeabilized A431 cells; experiment: Desensitization of β2ARs in permeabilized A431 cells; type: cell-based, human; settings: for Inhibition of Desensitization, %: 100 μM
Experimental: Permeabilization of cells was accomplished as follows. Human epidermoid carcinoma A431 cells were grown to about 95% confluence in Dulbecco's modified Eagle's medium supplemented with 10% fetal calf serum. Cells were harvested with collagenase, washed three times with calcium-free phosphate-buffered saline (PBS), then washed twice in 150 mM potassium glutamate/10 mM Hepes/5 mM EGTA/7 mM MgCl2, pH 7.1 (KG buffer), and finally resuspended in KG buffer supplemented with 5 mM glucose and 2 mM ATP (KG-A buffer) at a density of 4×10^7 cells per ml.
At 4×10^7 cells per ml, about 0.015% digitonin was necessary to achieve permeabilization of >95% cells as assessed by staining with trypan blue. In all experiments, digitonin was added stepwise until >95% of the cells were trypan blue positive.

[3] = molecular target: protein kinase C and cyclic nucleotide-dependent protein kinases; settings: cited from earlier work
[4] = system: β2ARs in intact A431 cells; experiment: Desensitization of β2ARs in intact A431 cells; type: cell-based, human; settings: data not shown
[5] = molecular target: T1, βAR kinase; experiment: Inhibition of β2AR phosphorylation by βAR kinase by synthetic peptides (Example III); type: biochemical, bovine; settings: β2AR as substrate; read-out: IC50 (μM), first intracellular loop peptides as inhibitors of βAR kinase
Experimental: FIG. 13. Inhibition of β2AR phosphorylation by synthetic peptides. Reconstituted β2AR (˜0.4 pmol) was incubated for 30 min at 30° with purified βAR kinase (˜30 ng) in the presence of 50 mM Tris-HCl, pH 7.5, 2 mM EDTA, 10 mM NaCl, 5 mM MgCl2, 5 mM sodium phosphate, 50 μM (−)-isoproterenol and 0.10 mM [γ^32P]ATP (2.0 cpm/fmol). Synthetic β2AR peptides were varied from 0 to 1 mM and included CI (Δ), CII (▴), CIII-2 (◯) and CT-1 (●). Reactions were stopped by the addition of […]. ^32P-labeled receptor was determined by cutting and counting the dried gel following autoradiography.
The β2-adrenergic receptor from hamster lung was purified to apparent homogeneity by sequential affinity and high performance liquid chromatography as described (Benovic et al (1984) Biochemistry 23:4510-4518). The purified receptor was reinserted into phosphatidylcholine vesicles as previously described (Cerione et al (1983) Nature 306:562-566). The protein-lipid pellets were resuspended in 20 mM Tris-HCl, pH 7.2, 2 mM EDTA and used as a substrate for the βAR kinase.
βAR kinase was purified from bovine cerebral cortex by modification of a previously described procedure (Benovic et al (1987) J. Biol. Chem. 262:9026-9032). Briefly, 250 g of bovine cortex was homogenized and the resulting high speed supernatant fraction was precipitated with 13-26% ammonium sulfate. This material was initially chromatographed on an Ultrogel AcA34 column equilibrated with 5 mM Tris-HCl, pH 7.5, 2 mM EDTA, 5 μg/ml leupeptin, 5 μg/ml pepstatin, 15 μg/ml benzamidine, 0.2 mM phenylmethyl sulfonyl fluoride (buffer A). The peak activity was diluted 1:1 with buffer A containing 0.02% triton X-100 and applied to a DEAE Sephacel column. Elution was accomplished with a 0-80 mM NaCl gradient in buffer A containing triton X-100. The peak activity was then applied directly to a CM Fractogel column and eluted with a 0-100 mM NaCl gradient in buffer A containing triton X-100. The purified kinase was stored at 4° C.
The inhibition of substrate phosphorylation by βAR kinase in the presence of synthetic peptides was assayed as follows. Reconstituted βAR (0.2-1 pmol/inclubation) was incubated with βAR kinase (10-30 ng) in a buffer containing 50 mM Tris-HCl, pH 7.5, 2 mM EDTA, 10 mM NaCl, 5 mM MgCl2, 5 mM sodium phosphate, 50 μM (−)-isoproterenol, 0.10 mM [γ-^32P]ATP (1-3 cpm/fmol) at 30° C. for 30 min. Synthetic β2AR peptides were varied in concentration from 0 to 2 mM. Reactions were quenched by the addition of SDS sample buffer followed by gel electrophoresis. In some experiments urea treated rod outer segments (Wilden et al (1982) Biochemistry 21:3014-3022; Shichi et al (1978) J. Biol. Chem. 253:7040-7046) were used as the substrate for βAR kinase. To further define the specificity of the peptide inhibition, phosvitin, casein (see Example I) and the synthetic peptides CT-2 and CT-3 were used as substrates for βAR kinase.
SDS polyacrylamide gel electrophoresis was performed by the method of Laemmli (Nature (1970) 227:[…]) using 10 or 15% homogeneous slab gels. SDS sample buffer contained 8% SDS, 10% glycerol, 5% β-mercaptoethanol, 25 mM Tris-HCl, pH 6.5 and 0.003% bromphenol blue. SDS urea polyacrylamide gel electrophoresis was carried out using 6.5 M urea, 0.1% SDS, 100 mM H3PO4, pH 6.8 with Tris-HCl and 9% acrylamide (Swank et al (1971) Anal. Biochem. 39:462). SDS urea sample buffer contained 1% SDS, 8M urea, 10 mM H3PO4, pH 6.8 with Tris-HCl, 1% β-mercaptoethanol and 0.003% bromphenol blue.

[6] = molecular target: protein kinase A (Homo sapiens, UniProt P17612); experiment: Peptides as substrates for protein kinase A; type: biochemical
[7] = molecular target: T1, βAR kinase; experiment: Phosphorylation of rhodopsin (urea-treated rod outer segments) by βAR kinase; type: biochemical, bovine; settings: read-out: IC50 (concentration of compound which gave 50% inhibition of βAR kinase); rhodopsin as substrate
Experimental: (§1) βAR kinase was purified from bovine cerebral cortex by modification of procedure of Benovic et al (J. Biol. Chem. (1987) 262:9026-9032). Briefly, 250 g of bovine cerebral cortex were homogenized with a Brinkmann tissue disrupter and centrifuged (40,000×g, 30 min). The supernatant was then precipitated with 13-26% ammonium sulfate. This material was initially chromatographed on a Ultrogel AcA34 column equilibrated with 5 mM Tris-HCl, pH 7.5, 2 mM EDTA, 10 μg/ml leupeptin, 5 μg/ml pepstatin, 10 μg/ml benzamidine, 0.2 mM phenylmethylsulfonyl fluoride (buffer A). The peak activity was diluted with an equal volume of buffer A containing 0.04% Triton X-100 before being applied to a DEAE-Sephacel column. Elution was accomplished with a 0-80 mM NaCl gradient in buffer A containing 0.02% Triton X-100. The peak activity was then applied to a CM-Fractogel column and eluted with a 0-100 mM NaCl gradient in buffer A containing 0.02% Triton X-100. The purified kinase is stable at 4° C. for several months. For these studies the βAR kinase preparations were >75% pure.
(§2) Rod outer segments were prepared from bovine retinas by stepwise sucrose gradient centrifugation (Wilden et al Biochemistry (1982) 21:3014-3022). Rhodopsin kinase-free rod outer segments were prepared by treatment with 5 M urea (Shichi et al J. Biol. Chem. (1978) 253:7040-7046) and consisted of ˜95% rhodopsin, as assessed by Coomassie Blue staining of sodium dodecyl sulfate-polyacrylamide gels.
(§3) Urea-treated rod outer segments were phosphorylated with βAR kinase as follows. Urea-treated rod outer segments (˜4 μg of rhodopsin) were incubated with βAR kinase (˜0.1 μg) for 10-15 min at 30° C. in the presence of 40 mM Tris-HCl, pH 7.4, 10 mM NaCl, 5 mM MgCl2, 1.5 mM EDTA, and 65 μM ATP (˜1 cpm/fmol) (total reaction volume was 40 μl). Reactions were stopped by the addition of 40 μl of sodium dodecyl sulfate sample buffer (see below) followed by sodium dodecyl sulfate-polyacrylamide gel electrophoresis. After autoradiography, the phosphorylated rhodopsin bands were excised and counted.
Sodium dodecyl sulfate-polyacrylamide gel electrophoresis was performed by the method of Laemmli (Nature (1970) 227:680-685) using 10% homogeneous polyacrylamide slab gels. Sample buffer contained 8% sodium dodecyl sulfate, 10% glycerol, 5% 3-mercaptoethanol, 25 mM Tris-HCl, pH 6.5, and 0.003% bromphenol blue. After electrophoresis, gels were dried with a Bio-Rad gel dryer prior to autoradiography.

[8] = molecular target: T1, βAR kinase; experiment: Reversal of heparin inhibition of βAR kinase by polycations; type: biochemical, bovine; settings: read-out: EC50 for reversal of heparin inhibition; in the presence of 1.1 μM heparin
Experimental: as §3

[9] = substrate: CC[C@H](C)[C@H](NC(=O)[C@H](Cc1ccc(O)cc1)NC(=O)[C@H](CC(N)=O)NC(=O)[C@H](CC(C)C)NC(=O)[C@@H]1CCCN1C(=O)[C@@H](NC(=O)[C@H](CCCNC(=N)N)NC(=O)[C@H](CC(C)C)NC(=O)[C@H](CCCCN)NC(=O)[C@H](CCCCN)NC(=O)[C@H](Cc1c[nH]cn1)NC(=O)[C@H](CCC(N)=O)NC(=O)[C@@H](NC(=O)[C@@H](NC(=O)[C@@H](N)C(C)C)[C@@H](C)O)C(C)C)[C@@H](C)O)C(=O)O; experiment: Phosphorylation of rhodopsin (urea-treated rod outer segments) by βAR kinase; type: biochemical, bovine; settings: other: rhodopsin as substrate, absence of heparin; 30.0 °C
Experimental: as §1, with “The peak activity was then applied to a CM-Fractogel column and eluted with a 0-100 mM NaCl gradient in buffer A containing 0.02% Triton X-100. The purified kinase is stable at 4° C. for several months. For these studies the βAR kinase preparations were >75% pure.” left out
as §2
Urea-treated rod outer segments were phosphorylated with βAR kinase as follows. […] After autoradiography, the phosphorylated rhodopsin bands were excised and counted. […]

Molecule: polylysine
IC50 [7]: ~69 µM
EC50 [8]: ~2.8 µM

B1: βAR kinase (Bos taurus) (protein)
chain: T1 sequence (P21146 1-689)
notes: βAR kinase was purified from bovine cerebral cortex; from tissue; host or cells: bovine cerebral cortex
Km [9]: 5.3 µM

Further lines, with some results ahead:

inhibition at 1 µM ([1]; 1 μM): 3 ± 4%
inhibition at 10 µM ([1]; 10 μM): 2 ± 7%
Inhibition of βAR kinase, % ([1]; 100 μM): 19 ± 6%
inhibition at 100 µM ([1]; 100 μM): ~20%
Molecule: CC1CNCCN1S(=O)(=O)c1cccc2cnccc12 (stereo not drawn) [Peptide H7, 1-5(isoquinolinesulfonyl)-2-methylpiperazine]
Inhibition of Desensitization, % [2]: 22 ± 14%
inhibition at 1 µM ([2]; Homo sapiens, A-431, 1 μM): 0%
inhibition at 10 µM ([2]; Homo sapiens, A-431, 10 μM): 7 ± 5%
inhibition at 100 µM ([2]; Homo sapiens, A-431, 100 μM): ~20%
Ki [3]: ~5 µM

inhibition at 100 µM ([1]; 100 μM): 80 ± 13%
IC50 [5]: 62 µM
Molecule: AIAKFERLQTVTNYF [β2AR-(57-71)]
Inhibition of Desensitization, % [2]: 52 ± 12%
effect on time course of desensitization ([2]; 100 μM peptide, 1 μM (−)-isoproterenol): markedly slowed the rate of desensitization
effect on desensitization in intact cells [4]: Neither compound affected desensitization

substrate for protein kinase A [6]: serve as substrates for protein kinase A
Molecule: QELLCLRRSSSKAYGNGYS [CT-1 (337-355)]
